Experimental data published in US20250207127A1, “PHYTOECDYSONES AND/OR 20-HYDROXYECDYSONE DERIVATIVES IN COMBINATION WITH AN ACTIVE INGREDIENT FOR RESTORING SMN EXPRESSION, FOR USE IN THE TREATMENT OF SPINAL MUSCULAR ATROPHY” (BIOPHYTIS, priority 2021, published 2025).
Strand notation (5' to 3'): a small letter for the sugar, then the base; units joined by * are phosphorothioate-linked, units joined directly phosphodiester-linked; [ ] holds rarer units or linkages, { } end groups; capitals alone tell only the bases. e = 2'-O-(2-methoxyethyl) (MOE); [5mC] = 5-methylcytosine

What was measured:
Assay type in all cases: in vivo, mouse
[1] = system: SMA mice (Smn^Δ7/Δ7; huSMN2^+/−); test: Survival of severe SMA mice treated from P0
From the text: (§1) The antisense oligonucleotide (ASO) of sequence SEQ ID NO: 23 (5′-TCACTTTCATAATGCTGG-3′), of reference ISIS 396443, also known under the name ISIS-SMNRx, and called in the remainder of the description ASO 10-27, complementary to 18 bases (bases 10 to 27) of intron 7 of the SMN2 gene (targeting a site in intron 7, called ISS-N1, which represses the inclusion of exon 7 of the pre-messenger RNA (pre-mRNA) of the SMN2 gene) having modified nucleotides 2′-O-methoxyethyl on the 2′ carbon atom of deoxyribose for each base, with a phosphorothioate backbone and 5-methyl cytosines and the control ASO (denoted mismatch) of sequence SEQ ID NO°: 24 (5′-TTAGTTTAATCACGCTCG-3′) (Singh et al. 2006; Williams et al. 2009), were synthesised and purified as previously described (Baker et al. 1997, Hua et al. 2008; Passini et al., 2011). The oligonucleotides are resuspended at a concentration of 8 μg/μL in 0.9% NaCl and stored at −20° C.
(§2) On the day of injection, the ASO stock solution is diluted to the concentration of 2 μg/μL in 0.9% NaCl. Methylene blue 0.04% is added to the solution as an injection control. Newborn SMA mice receive a single dose of ASO 10-27 or ASO mismatch of 8 μg on the 1st post-natal day (PO) by unilateral intra-cerebro-ventricular injection using a Hamilton syringe and a 32G needle. The injection site is located 1 mm from the sagittal suture, between bregma and lambda, landmarks visible through the skin at PO. The needle is positioned perpendicular to the injection site on the surface of the skin and inserted approximately 3 mm deep to reach the lateral ventricle.
(§3) The complementary treatment BIO101 complexed with cyclodextrin is administered daily to the mice from the first post-natal day (PO) orally at a dose of 50 mg/kg using a pipette.
(§4) A severe SMA mouse model was used on a FVB/NRj genetic background, characterised by the invalidation of exon 7 of the murine Smn gene and expressing two copies of the human SMN2 transgene (Smn^Δ7/Δ7; huSMN2−/+) (Hsieh et al., 2000). The mice resulting from these crosses having the genotype “FVB/NRj-Smn^Δ7/Δ7 huSMN2−/+2 copies” are described as “SMA” (Hsieh et al., 2000). SMA mice were treated with either BIO101 alone or a mismatch ASO or an ASO 10-27 alone, or with an ASO 10-27+BIO101 combined treatment starting from PO. Survival (FIG. 1) and weight

[2] = system: SMA mice (Smn^Δ7/Δ7; huSMN2^+/−); test: Weight evolution of severe SMA mice treated from P0; details: relative to mismatch ASO
From the text: as §1, §2, §3, §4

[3] = system: SMA mice (Smn^Δ7/Δ7; huSMN2^+/−); test: Open-field test (movement capacities) of SMA mice; details: at P15, 5 minutes, mean±SEM
Experimental: as §2, with “ventricle. […]” for “ventricle.”
(§5) We performed phenotypic analyses of severe SMA type 2 mice treated with BIO101 alone or a mismatch ASO or ASO 10-27 alone, or with an ASO 10-27+BIO101 combined treatment from PO. […] We, on the one hand, evaluated the movement capacities by the open-field test (FIG. 3), as well as the muscular fatigability by grip-test (FIG. 4), as previously described (Biondi et al., 2008; Branchu et al., 2013; Chali et al., 2016).
The device used for open-field testing consists of a plastic box measuring 28×28×5 cm with a field grid divided into 16 tiles measuring 7 cm×7 cm. […] The behavioural measurements were recorded by the experimenter during these 5 minutes and the total number of crossed tiles was recorded.

[4] = system: SMA mice (Smn^Δ7/Δ7; huSMN2^+/−); test: Grip-test (muscle fatigability) of SMA mice; details: relative to mismatch ASO
Experimental: as §2, §3, §5
In order to assess the muscle fatigability, the grip strength of the mice's forelimbs was tested. […] The time spent hanging on is recorded. […]

[5] = SMA mice, ASO 8 μg single ICV injection at P0, BIO101 50 mg/kg oral daily from P0

Row | Substance | median survival [1, 5] [days] | improvement in animal survival ([1]; median survival compared to mismatch ASO control group) [%] | increase of average weight ([2]; at P7) | increase of average weight ([2]; at P8) [%] | increase of average weight ([2]; at P9) [%] | increase of average weight ([2]; at P10) [%] | total number of crossed tiles (open field) [3] [tiles] | improvement of resistance to fatigue (grip-test) ([4]; at P7) | improvement of resistance to fatigue (grip-test) ([4]; at P15) [%] | average lifespan of the mouse pups [1, 5] [days]
1 | 5′-TCACTTTCATAATGCTGG-3′ (antisense eT*e[5mC]*eA*e[5mC]*eT*eT*eT*e[5mC]*eA*eT*eA*eA*eT*eG*e[5mC]*eT*eG*eG) [ASO 10-27, antisense oligonucleotide complementary to bases 10 to 27 of intron 7 of the SMN2 gene] | 18 | 38 | does not increase | 9.9 | 13.9 | 16 | 70±20 | not improved | 7.7 | 
2 | 5′-TTAGTTTAATCACGCTCG-3′ (listed as DNA, chemistry not given here) [mismatch ASO, control ASO (denoted mismatch)] | 13 |  |  |  |  |  |  |  |  | 13
